Tests used:
[1] = molecular target: ATP-dependent translocase ABCB1 (Homo sapiens, UniProt P08183); assay: Binding affinity to human P-glycoprotein expressed in LCC6MDR cells assessed as stabilization of protein by measuring fluorescence at 100 uM incubated for 1 hr by Western blotting analysis; assay type: cell-based
[2] = molecular target: T1, ATP-dependent translocase ABCB1 (Homo sapiens, UniProt P08183, Q1193A); assay: Negative allosteric modulator activity at human P-gp Q1193A mutant expressed in HEK293FT cells assessed as reversal of P-gp mediated PTX resistance by measuring sensitivity fold change incubated for 5 days by MTS assay; assay type: cell-based; conditions: 120 h, time 5 day
T1 sequence (P08183 whole entry Q1193A): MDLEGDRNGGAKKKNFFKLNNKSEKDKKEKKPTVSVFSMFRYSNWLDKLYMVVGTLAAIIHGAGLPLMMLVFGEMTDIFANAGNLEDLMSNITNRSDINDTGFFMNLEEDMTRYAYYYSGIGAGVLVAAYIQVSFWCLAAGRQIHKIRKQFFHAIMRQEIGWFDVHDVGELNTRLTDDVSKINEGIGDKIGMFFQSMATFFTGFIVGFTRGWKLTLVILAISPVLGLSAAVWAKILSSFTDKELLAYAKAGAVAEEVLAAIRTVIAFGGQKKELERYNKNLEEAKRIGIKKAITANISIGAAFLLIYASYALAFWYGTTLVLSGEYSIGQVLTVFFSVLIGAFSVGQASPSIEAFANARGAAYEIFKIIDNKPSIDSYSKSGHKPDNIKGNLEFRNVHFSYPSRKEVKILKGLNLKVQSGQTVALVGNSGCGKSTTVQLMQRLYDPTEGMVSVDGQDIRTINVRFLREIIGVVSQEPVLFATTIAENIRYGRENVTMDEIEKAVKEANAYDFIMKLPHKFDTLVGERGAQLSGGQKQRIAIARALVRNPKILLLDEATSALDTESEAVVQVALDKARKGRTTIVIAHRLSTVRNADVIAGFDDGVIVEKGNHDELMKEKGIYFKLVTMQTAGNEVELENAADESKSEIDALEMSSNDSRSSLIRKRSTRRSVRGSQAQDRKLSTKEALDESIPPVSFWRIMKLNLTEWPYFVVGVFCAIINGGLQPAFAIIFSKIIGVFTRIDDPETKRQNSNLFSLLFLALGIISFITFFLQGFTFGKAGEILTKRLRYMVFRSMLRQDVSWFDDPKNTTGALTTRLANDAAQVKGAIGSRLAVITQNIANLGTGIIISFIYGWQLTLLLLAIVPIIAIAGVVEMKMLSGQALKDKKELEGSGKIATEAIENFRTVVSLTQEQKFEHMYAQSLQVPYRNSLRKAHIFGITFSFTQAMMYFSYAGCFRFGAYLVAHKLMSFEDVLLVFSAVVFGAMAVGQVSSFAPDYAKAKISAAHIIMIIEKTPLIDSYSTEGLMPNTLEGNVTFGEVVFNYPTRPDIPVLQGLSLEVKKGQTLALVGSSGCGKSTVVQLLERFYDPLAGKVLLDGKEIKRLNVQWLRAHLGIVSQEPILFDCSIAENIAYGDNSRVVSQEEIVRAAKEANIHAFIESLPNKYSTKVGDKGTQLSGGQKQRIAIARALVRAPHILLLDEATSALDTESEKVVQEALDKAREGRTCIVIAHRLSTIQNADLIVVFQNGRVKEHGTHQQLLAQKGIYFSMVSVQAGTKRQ

[3] = molecular target: T2, ATP-dependent translocase ABCB1 (Homo sapiens, UniProt P08183, Q1193F); assay: Negative allosteric modulator activity at human P-gp Q1193F mutant expressed in HEK293FT cells assessed as reversal of P-gp mediated PTX resistance by measuring sensitivity fold change incubated for 5 days by MTS assay; assay type: cell-based; conditions: 120 h, time 5 day
T2 sequence (P08183 whole entry Q1193F): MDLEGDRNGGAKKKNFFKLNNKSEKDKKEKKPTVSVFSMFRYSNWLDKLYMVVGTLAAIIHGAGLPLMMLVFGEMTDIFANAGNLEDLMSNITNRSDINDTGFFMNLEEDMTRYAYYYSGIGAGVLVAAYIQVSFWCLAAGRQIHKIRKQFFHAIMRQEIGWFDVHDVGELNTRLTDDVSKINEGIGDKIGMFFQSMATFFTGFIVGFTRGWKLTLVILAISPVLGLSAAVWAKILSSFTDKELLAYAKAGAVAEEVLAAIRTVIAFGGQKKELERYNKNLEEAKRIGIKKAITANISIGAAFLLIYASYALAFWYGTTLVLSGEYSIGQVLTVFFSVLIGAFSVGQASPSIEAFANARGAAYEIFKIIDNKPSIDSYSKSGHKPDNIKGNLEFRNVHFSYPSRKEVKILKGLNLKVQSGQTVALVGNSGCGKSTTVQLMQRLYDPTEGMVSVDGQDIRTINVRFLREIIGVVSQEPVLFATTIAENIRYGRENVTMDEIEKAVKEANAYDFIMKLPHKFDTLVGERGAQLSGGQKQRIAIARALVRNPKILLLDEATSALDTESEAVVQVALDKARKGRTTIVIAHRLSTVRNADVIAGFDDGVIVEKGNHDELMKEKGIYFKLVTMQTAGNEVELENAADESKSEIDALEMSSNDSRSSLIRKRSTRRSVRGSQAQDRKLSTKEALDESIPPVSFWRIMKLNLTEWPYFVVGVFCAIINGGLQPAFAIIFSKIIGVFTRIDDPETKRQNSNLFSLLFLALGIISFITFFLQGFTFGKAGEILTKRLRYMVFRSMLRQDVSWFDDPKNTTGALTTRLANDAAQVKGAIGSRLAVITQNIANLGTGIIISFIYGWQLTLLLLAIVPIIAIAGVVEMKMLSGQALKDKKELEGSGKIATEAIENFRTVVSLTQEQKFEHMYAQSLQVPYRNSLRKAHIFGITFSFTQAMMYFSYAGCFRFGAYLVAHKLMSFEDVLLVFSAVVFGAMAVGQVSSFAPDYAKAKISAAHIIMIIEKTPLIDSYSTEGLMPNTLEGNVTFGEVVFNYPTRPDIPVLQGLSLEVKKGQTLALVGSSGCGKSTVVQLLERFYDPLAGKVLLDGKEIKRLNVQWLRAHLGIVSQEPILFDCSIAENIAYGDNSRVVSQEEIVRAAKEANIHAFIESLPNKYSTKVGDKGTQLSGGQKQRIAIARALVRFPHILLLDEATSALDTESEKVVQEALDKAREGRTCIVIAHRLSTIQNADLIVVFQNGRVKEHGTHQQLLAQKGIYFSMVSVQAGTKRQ

[4] = molecular target: ATP-dependent translocase ABCB1 (Homo sapiens, UniProt P08183, I1115L); assay: Negative allosteric modulator activity at human P-gp I1115L mutant expressed in HEK293FT cells assessed as reversal of P-gp mediated PTX resistance by measuring sensitivity fold change incubated for 5 days by MTS assay; assay type: cell-based; conditions: 120 h, time 5 day
[5] = molecular target: T3, ATP-dependent translocase ABCB1 (Homo sapiens, UniProt P08183, T1226F); assay: Negative allosteric modulator activity at human P-gp T1226F mutant expressed in HEK293FT cells assessed as reversal of P-gp mediated PTX resistance by measuring sensitivity fold change incubated for 5 days by MTS assay; assay type: cell-based; conditions: 120 h, time 5 day
T3 sequence (P08183 whole entry T1226F): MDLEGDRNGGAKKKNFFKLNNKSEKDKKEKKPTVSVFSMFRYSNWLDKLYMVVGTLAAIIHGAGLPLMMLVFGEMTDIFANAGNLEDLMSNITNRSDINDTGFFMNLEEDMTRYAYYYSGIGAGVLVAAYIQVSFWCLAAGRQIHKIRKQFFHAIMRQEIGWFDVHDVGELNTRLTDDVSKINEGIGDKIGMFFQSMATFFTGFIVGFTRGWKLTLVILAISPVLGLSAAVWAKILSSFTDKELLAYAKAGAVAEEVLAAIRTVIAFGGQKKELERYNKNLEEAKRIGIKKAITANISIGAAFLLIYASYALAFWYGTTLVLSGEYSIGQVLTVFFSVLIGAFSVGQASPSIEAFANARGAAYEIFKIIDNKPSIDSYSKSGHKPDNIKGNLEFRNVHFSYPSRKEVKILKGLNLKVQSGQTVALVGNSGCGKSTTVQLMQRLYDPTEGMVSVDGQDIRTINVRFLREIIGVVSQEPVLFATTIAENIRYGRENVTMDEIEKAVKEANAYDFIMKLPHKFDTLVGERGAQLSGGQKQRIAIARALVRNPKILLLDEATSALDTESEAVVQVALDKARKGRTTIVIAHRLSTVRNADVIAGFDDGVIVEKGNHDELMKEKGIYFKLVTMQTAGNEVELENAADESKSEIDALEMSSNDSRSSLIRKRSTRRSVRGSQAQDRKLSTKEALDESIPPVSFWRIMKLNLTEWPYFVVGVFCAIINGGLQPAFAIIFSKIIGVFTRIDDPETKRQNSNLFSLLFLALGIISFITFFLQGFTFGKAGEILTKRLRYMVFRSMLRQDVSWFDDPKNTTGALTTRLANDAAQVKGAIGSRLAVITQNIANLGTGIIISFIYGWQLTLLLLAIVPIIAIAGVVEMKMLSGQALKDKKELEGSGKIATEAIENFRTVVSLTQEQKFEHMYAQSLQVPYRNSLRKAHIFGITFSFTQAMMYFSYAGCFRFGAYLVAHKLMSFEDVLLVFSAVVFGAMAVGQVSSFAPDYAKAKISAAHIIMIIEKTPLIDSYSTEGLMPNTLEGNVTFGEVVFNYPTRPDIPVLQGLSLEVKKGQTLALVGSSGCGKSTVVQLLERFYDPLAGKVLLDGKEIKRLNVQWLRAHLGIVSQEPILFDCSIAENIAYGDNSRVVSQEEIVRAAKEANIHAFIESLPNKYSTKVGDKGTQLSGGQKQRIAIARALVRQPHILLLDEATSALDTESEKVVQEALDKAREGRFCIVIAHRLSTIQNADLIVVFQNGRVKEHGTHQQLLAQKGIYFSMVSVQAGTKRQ

[6] = molecular target: ATP-dependent translocase ABCB1 (Homo sapiens, UniProt P08183, G1114A); assay: Negative allosteric modulator activity at human P-gp G1114A mutant expressed in HEK293FT cells assessed as increase in intracellular doxorubicin accumulation using doxorubicin as substrate at 1 uM incubated for 150 mins by microplate reader assay (reference value: 98.8 +/- 1.4 %); assay type: cell-based; conditions: 2.5 h
[7] = molecular target: ATP-dependent translocase ABCB1 (Homo sapiens, UniProt P08183, I1115A); assay: Negative allosteric modulator activity at human P-gp I1115A mutant expressed in HEK293FT cells assessed as increase in intracellular doxorubicin accumulation using doxorubicin as substrate at 1 uM incubated for 150 mins by microplate reader assay (reference value: 91.6 +/- 4.4 %); assay type: cell-based; conditions: 2.5 h
[8] = molecular target: ATP-dependent translocase ABCB1 (Homo sapiens, UniProt P08183, T1226A); assay: Negative allosteric modulator activity at human P-gp T1226A mutant expressed in HEK293FT cells assessed as increase in intracellular doxorubicin accumulation using doxorubicin as substrate at 1 uM incubated for 150 mins by microplate reader assay (reference value: 89 +/- 4 %); assay type: cell-based; conditions: 2.5 h
[9] = molecular target: T1, ATP-dependent translocase ABCB1; assay: Negative allosteric modulator activity at human P-gp Q1193A mutant expressed in HEK293FT cells assessed as increase in intracellular doxorubicin accumulation using doxorubicin as substrate at 1 uM incubated for 150 mins by microplate reader assay (reference value: 53.6 +/- 3 %); assay type: cell-based; conditions: 2.5 h
[10] = molecular target: T4, ATP-dependent translocase ABCB1 (Homo sapiens, UniProt P08183, C1227A); assay: Negative allosteric modulator activity at human P-gp C1227A mutant expressed in HEK293FT cells assessed as increase in intracellular doxorubicin accumulation using doxorubicin as substrate at 1 uM incubated for 150 mins by microplate reader assay (reference value: 33.3 +/- 1.3 %); assay type: cell-based; conditions: 2.5 h
T4 sequence (P08183 whole entry C1227A): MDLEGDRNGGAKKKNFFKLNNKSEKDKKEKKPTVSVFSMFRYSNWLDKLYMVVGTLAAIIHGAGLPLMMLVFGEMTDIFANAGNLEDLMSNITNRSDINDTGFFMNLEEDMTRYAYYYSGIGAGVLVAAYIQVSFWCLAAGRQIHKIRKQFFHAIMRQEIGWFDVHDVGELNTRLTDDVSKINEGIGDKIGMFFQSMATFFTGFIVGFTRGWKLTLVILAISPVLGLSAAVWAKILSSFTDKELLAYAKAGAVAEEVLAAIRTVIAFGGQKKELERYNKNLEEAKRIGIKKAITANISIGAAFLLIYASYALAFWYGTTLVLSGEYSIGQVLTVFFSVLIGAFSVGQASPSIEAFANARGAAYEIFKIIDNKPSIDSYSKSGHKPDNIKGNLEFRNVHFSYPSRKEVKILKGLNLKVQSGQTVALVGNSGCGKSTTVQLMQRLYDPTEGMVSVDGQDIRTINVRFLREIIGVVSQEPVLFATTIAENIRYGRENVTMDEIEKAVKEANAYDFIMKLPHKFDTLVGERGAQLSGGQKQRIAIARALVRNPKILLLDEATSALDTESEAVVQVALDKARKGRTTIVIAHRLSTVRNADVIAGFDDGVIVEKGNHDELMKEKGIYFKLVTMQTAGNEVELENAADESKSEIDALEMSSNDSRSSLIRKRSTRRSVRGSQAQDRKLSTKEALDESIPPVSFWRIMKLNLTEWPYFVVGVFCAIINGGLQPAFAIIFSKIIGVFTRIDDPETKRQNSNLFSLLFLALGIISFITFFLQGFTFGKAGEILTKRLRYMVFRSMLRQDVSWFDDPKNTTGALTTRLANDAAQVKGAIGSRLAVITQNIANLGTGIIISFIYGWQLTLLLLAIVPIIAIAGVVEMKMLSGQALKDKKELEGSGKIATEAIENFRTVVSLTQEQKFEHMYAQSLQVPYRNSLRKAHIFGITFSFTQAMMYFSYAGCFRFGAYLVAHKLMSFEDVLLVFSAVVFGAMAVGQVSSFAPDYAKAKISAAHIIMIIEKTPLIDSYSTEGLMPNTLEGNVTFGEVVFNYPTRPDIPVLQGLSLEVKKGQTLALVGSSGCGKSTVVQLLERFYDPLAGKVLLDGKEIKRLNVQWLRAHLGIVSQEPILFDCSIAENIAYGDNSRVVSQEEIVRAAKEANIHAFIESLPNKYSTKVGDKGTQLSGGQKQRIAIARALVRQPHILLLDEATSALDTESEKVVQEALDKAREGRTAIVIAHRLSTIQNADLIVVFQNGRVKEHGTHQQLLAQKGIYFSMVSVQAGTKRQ

[11] = molecular target: ATP-dependent translocase ABCB1 (Homo sapiens, UniProt P08183, Q1193C); assay: Negative allosteric modulator activity at human P-gp Q1193C mutant expressed in HEK293FT cells assessed as increase in intracellular doxorubicin accumulation using doxorubicin as substrate at 1 uM incubated for 150 mins by microplate reader assay (reference value: 63 +/- 2.5 %); assay type: cell-based; conditions: 2.5 h
[12] = molecular target: ATP-dependent translocase ABCB1 (Homo sapiens, UniProt P08183, Q1193T); assay: Negative allosteric modulator activity at human P-gp Q1193T mutant expressed in HEK293FT cells assessed as increase in intracellular doxorubicin accumulation using doxorubicin as substrate at 1 uM incubated for 150 mins by microplate reader assay (reference value: 65.5 +/- 0.9 %); assay type: cell-based; conditions: 2.5 h
[13] = molecular target: ATP-dependent translocase ABCB1 (Homo sapiens, UniProt P08183, H1195A); assay: Negative allosteric modulator activity at human P-gp H1195A mutant expressed in HEK293FT cells assessed as fold change in intracellular doxorubicin accumulation using doxorubicin as substrate at 1 uM incubated for 150 mins by microplate reader assay relative to DMSO; assay type: cell-based; conditions: 2.5 h
[14] = molecular target: T4, ATP-dependent translocase ABCB1; assay: Negative allosteric modulator activity at human P-gp C1227A mutant expressed in HEK293FT cells assessed as fold change in intracellular doxorubicin accumulation using doxorubicin as substrate at 1 uM incubated for 150 mins by microplate reader assay relative to DMSO; assay type: cell-based; conditions: 2.5 h
[15] = molecular target: ATP-dependent translocase ABCB1 (Homo sapiens, UniProt P08183, G1114I); assay: Negative allosteric modulator activity at human P-gp G1114I mutant expressed in HEK293FT cells assessed as fold change in intracellular doxorubicin accumulation using doxorubicin as substrate at 1 uM incubated for 150 mins by microplate reader assay relative to DMSO; assay type: cell-based; conditions: 2.5 h
[16] = molecular target: ATP-dependent translocase ABCB1 (Homo sapiens, UniProt P08183, G1114L); assay: Negative allosteric modulator activity at human P-gp G1114L mutant expressed in HEK293FT cells assessed as fold change in intracellular doxorubicin accumulation using doxorubicin as substrate at 1 uM incubated for 150 mins by microplate reader assay relative to DMSO; assay type: cell-based; conditions: 2.5 h
[17] = molecular target: ATP-dependent translocase ABCB1 (Homo sapiens, UniProt P08183, I1115K); assay: Negative allosteric modulator activity at human P-gp I1115K mutant expressed in HEK293FT cells assessed as fold change in intracellular doxorubicin accumulation using doxorubicin as substrate at 1 uM incubated for 150 mins by microplate reader assay relative to DMSO; assay type: cell-based; conditions: 2.5 h
[18] = molecular target: ATP-dependent translocase ABCB1 (Homo sapiens, UniProt P08183, T1226W); assay: Negative allosteric modulator activity at human P-gp T1226W mutant expressed in HEK293FT cells assessed as fold change in intracellular doxorubicin accumulation using doxorubicin as substrate at 1 uM incubated for 150 mins by microplate reader assay relative to DMSO; assay type: cell-based; conditions: 2.5 h
[19] = molecular target: T3, ATP-dependent translocase ABCB1; assay: Negative allosteric modulator activity at human P-gp T1226F mutant expressed in HEK293FT cells assessed as fold change in intracellular doxorubicin accumulation using doxorubicin as substrate at 1 uM incubated for 150 mins by microplate reader assay relative to DMSO; assay type: cell-based; conditions: 2.5 h
[20] = molecular target: T1, ATP-dependent translocase ABCB1; assay: Activation of P-gp ATPase activity in human P-gp Q1193A mutant expressed in HEK293FT cell microsomes at 20 uM incubated for 1 hr in presence of ATP by Glo-luminescence based microplate reader assay (reference value: 0.38 +/- 0.04 pmol/min/microg); design: species or system Microsome
[21] = molecular target: T2, ATP-dependent translocase ABCB1; assay: Activation of P-gp ATPase activity in human P-gp Q1193F mutant expressed in HEK293FT cell microsomes assessed as fold change of ATPase activity at 20 uM incubated for 1 hr in presence of ATP by Glo-luminescence based microplate reader assay relative to DMSO; design: species or system Microsome

- Activity [1]: Active
- fold change (FC) [2]: 4.3
- fold change (FC) [3]: 5.6
- fold change (FC) [4]: 45.8
- fold change (FC) [5]: 59.4
- Activity [6]: 93.5%
- Activity [7]: 89.7%
- Activity [8]: 85.8%
- Activity [9]: 59.8%
- Activity [10]: 43.8%
- Activity [11]: 81.4%
- Activity [12]: 85.4%
- fold change (FC) [13]: 1.1
- fold change (FC) [14]: 1.3
- fold change (FC) [15]: 1
- fold change (FC) [16]: 1
- fold change (FC) [17]: 1
- fold change (FC) [18]: 1.5
- fold change (FC) [19]: 1.5
- Activity [20]: 0.42 pmol/min/µg
- fold change (FC) [21]: 1.1
Compound: O=c1cc(-c2ccc(OCCOCCNCc3ccccc3)cc2)oc2ccccc12

Source: ChEMBL document CHEMBL5338754, “Identification of Binding Sites in the Nucleotide-Binding Domain of P-Glycoprotein for a Potent and Nontoxic Modulator, the Amine-Containing Monomeric Flavonoid FM04” (J Med Chem, 2023)
